Patent US20140057865A1, “ANALYSIS OF NODES IN CELLULAR PATHWAYS” (Nodality, Inc., priority 2009, published 2014)
“Also recorded” adds a separate entry of the source.

Experiments:
U937 cells [1] = assay: Cell cycle progression and cell death by DAPI staining and scatter; format: cell-based, human; conditions: Vidaza 2.5 μM, Dacogen 0.625 μM, 20 hours
Experimental: (§1) FIGS. 9 and 10 show an embodiment of the invention used to analyze the effects of the DNA methyltransferase inhibitor drugs Vidaza® cytidine analog and Dacogen® cytidine analog on cultured U937 cells. See Example 1 in U.S. Ser. No. 61/120,320 for detailed cell culture, staining, and flow cytometry protocols similar to those used in this example. Here, to analyze the effects of Vidaza® cytidine analog and Dacogen® cytidine analog on cell cycle progression and cell death, U937 cells were treated with Vidaza® cytidine analog (5-Azacytidine) at a concentration of 2.5 μM, or Dacogen® cytidine analog (5-Aza-2′-deoxycytidine) at a concentration of 0.625 μM. The cells were continuously incubated with the drugs for 20 hours in 10% FBS RPMI, fixed, permeabilized, and then stained with DAPI, or stained with DAPI and immunolabeled with antibodies against DMNT 1.
(§2) (See Alberts et al., Molecular Biology of the Cell, 4th Ed., Chapter 17 for an overview of the cell cycle). […] Additionally, the experimental results in this example may be used to identify therapeutic agents that can be used in combination with either Vidaza® cytidine analog or Dacogen® cytidine analog. […]

[2] = test system: erythroblast (TF-1) cell line; assay: DNA content by DAPI staining, flow cytometry; format: cell-based, human; conditions: for cell cycle arrest and cell death by DNA content (sub-2n through 4n, DAPI staining): TF-1 erythroblasts, several dilutions, 24 hours
Excerpt: DNA content can be directly monitored using fluorescent dyes that bind DNA in the major or minor groove. This labeled DNA can be detected and cellular DNA content can be determined using flow cytometry or other methods as described below. DNA content can be used to indicate the status of a cell or population of cells. The effect of a compound on both the cell cycle and cell death pathways can be determined by monitoring changes in DNA content within a single cell or a population of cells. For example, cell cycle arrest in G1 or G2/M phases of the cell cycle may appear as an increase in 2n or 4n DNA content respectively while an increase in cell death may appear as an increase in sub-2n DNA content.
(§3) In the example, erythroblast (TF-1) and U937 cell lines, as well as healthy bone marrow mononuclear cells, were treated with a test modulator (ON01910.Na) over several dilutions for 24 hours. Flow cytometry was used to obtain multiple intracellular readouts or nodes, including levels of protein phosphorylation, levels of protein expression, cell size and shape, and DNA content.

[3] = test system: healthy bone marrow mononuclear cells; assay: Viability of healthy BMMCs, ON01910.Na titration; format: cell-based
Experimental: as §3
(§4) The findings shown in FIGS. 4 through 7 were tested in other cell types.

[4] = test system: erythroblast (TF-1) cell line; assay: Cell death by forward and side scatter of light; format: cell-based, human; conditions: TF-1 erythroblasts, 24 and 48-hour continuous treatment
Excerpt: In some embodiments of the invention, the activatible elements may function in cell death, including apoptosis or necrosis. A person of ordinary skill in the art may analyze cell death using stains, biomarkers, assays, or kits to identify node states associated with cell cycle progression and cell death without departing from the scope of the invention. By way of example, stains used to identify cell death include, but are not limited to amine aqua, propidium iodide, 4′,6-diamidino-2-phenylindole (DAPI), bromodeoxyuridine (BrdU), acridine orange, SYTOX, and TUNEL. A person of ordinary skill in the art will appreciate that several of the aforementioned stains, such as DAPI, may also be used to determine the cell cycle of a single cell or population of cells. Cell death may also be identified using the forward versus side scatter dot plots obtained during flow cytometry.
as §3

U937 cells [5] = assay: Cell cycle nodes by flow cytometry, ON01910.Na titration; format: cell-based, human
Experimental: as §3, §4

[6] = test system: healthy bone marrow mononuclear cells; assay: as above; format: cell-based
Experimental: as §3, §4

TF-1 cells = assay: Cell cycle nodes (p-Cdk1 Y15, p-Histone H3 S28, Cyclin B1) by flow cytometry; format: cell-based, human
Experimental: as §3
FIGS. 4-6 show the effects of two concentrations of ON01910.Na on different markers or nodes whose activation status correlates with cell cycle progression. […] Cdk1 activation normally occurs at the end of G2, so increased Cdk1 levels […] at tyrosine 15 are consistent with cell cycle arrest in G2 or early M phases (See Alberts et al, Molecular Biology of the Cell, 4th Ed., Chapter 17 for a detailed discussion of the cell cycle).
Phosphorylation of histone H3 is a marker of chromatin condensation and entry into M phase (See Alberts et al, Molecular Biology of the Cell, 4th Ed., FIG. 4-35 for discussion of histone modifications). Continuous treatment with ON01910.Na for 24-hours enhances H3 (Ser28) phosphorylation. The effects of these two doses on the node state (serine 28 phosphorylation of H3) are detectable using flow cytometry. […] FIG. 7 presents a summary of the effects of ON01910.Na treatment on the Cyclin B1, p-Cdk1 Y15, and pH3 S28 cell cycle nodes.

DNMT1 = DNMT1 expression by immunolabeling, flow cytometry; format: cell-based, human; conditions: U937 cells, Vidaza 2.5 μM, 20 hours
Experimental: as §1, §2

[7] = TF-1 erythroblasts, two concentrations, 24 hours continuous

Compound | effect on cell cycle progression and cell death (DAPI frequency plots, scatter) (U937 cells [1]) | 4n DNA content peak ([2]; TF-1 cells, 0.12 μM and 0.37 μM) | cell cycle arrest and cell death by DNA content (sub-2n through 4n, DAPI staining) [2] | cell cycle arrest and cell death by DNA content (sub-2n through 4n, DAPI staining) ([2]; listed as ON-01910.Na) | viability of healthy bone marrow mononuclear cells [3] | cell death by scatter properties [4] | cell death by scatter properties ([4]; listed as ON-01910.Na) | changes in cell cycle signaling molecules (U937 cells [5]) | expression of Cyclin B1 (U937 cells [5]; 24 hours) | phosphorylation of Cdk1 (U937 cells [5]; 24 hours) | phosphorylation of H3 (U937 cells [5]; 24 hours) | cycling bone marrow mononuclear cells as measured by p-Cdk1 Y15 ([6]; BMMCs) | Cyclin B1 expression levels ([6]; healthy BMMCs) | cell cycle arrest indicated by Cyclin B1, p-Cdk1 Y15 and pH3 S28 nodes (TF-1 cells; TF-1 cells, various concentrations, 24 hours) | Cyclin B1 expression (TF-1 cells; TF-1 erythroblasts, increased concentration) | p-Cdk1 Y15 phosphorylation (TF-1 cells; [7]) | p-Histone H3 S28 phosphorylation (TF-1 cells; [7]) | expression of DNMT1 (DNMT1)
Nc1ncn([C@H]2C[C@H](O)[C@@H](CO)O2)c(=O)n1 [Dacogen, 5-Aza-2′-deoxycytidine] | S phase cell cycle arrest; also recorded: inducing arrest at S phase |  |  |  |  |  |  |  |  |  |  |  |  |  |  |  |  | 
COc1cc(OC)c(/C=C/S(=O)(=O)Cc2ccc(OC)c(NCC(=O)[O-])c2)c(OC)c1.[Na+] [ON01910.Na] |  | increases in a dose-dependent manner | induces arrest in G2/M and cell death in a dose-dependent manner | induces arrest in G2/M and cell death | does not significantly alter viability | induce cell death, with a greater magnitude of cell death observed following longer treatment and higher dose; also recorded: induces cell death in erythroblasts | induces cell death | simultaneous changes in cell cycle signaling molecules at the same drug concentration | increased | decreased phosphorylation of Cdk1 | increased phosphorylation of H3 | dose dependent decrease of cycling bone marrow mononuclear cells | Cyclin B1 expression levels increase | arrest in the G2 or M phases of the cell cycle in a dose dependent manner | more cells express Cyclin B1; also recorded: mediates an increase in cyclin B1 | increases dephosphorylation of p-Cdk1 at tyrosine 15; also recorded: mediates dephosphorylation of p-Cdk1^Y15 | histone 3 serine 28 phosphorylation increases; also recorded: mediates an increase in p-HistoneH3^S28 | 
Nc1ncn([C@@H]2O[C@H](CO)[C@@H](O)[C@H]2O)c(=O)n1 [Vidaza, 5-Azacytidine] | increased cell death; also recorded: inducing cell death |  |  |  |  |  |  |  |  |  |  |  |  |  |  |  |  | decreased expression; also recorded: mediates a decrease in DNMT1
